This passage reports zone of inhibition results from patent publication US20260191769A1, “DRUG ELUTING IMPLANTS AND USES THEREOF” (MUSC FOUNDATION FOR RESEARCH DEVELOPMENT, priority 2022, published 2026).

The assay deals with Methicillin-Resistant Staphylococcus aureus (MRSA). Briefly: microbe, parasite or virus in culture.

Read-outs that look alike come from different tables or passages of the source.

Protocol: At the prescribed time points, gels were removed and placed in active bacteria cultures for 24 hours. After 24 hours, the gels were removed and the bacteria zone of exclusion will be measured.
Briefly, Methicillin-Resistant Staphylococcus aureus (MRSA) was cultured in brain-heart infusion broth and diluted to match a 0.5 McFarland turbidity standard. The resulting culture was tested with gram stain to ensure the MRSA was present. After determining that the MRSA was indeed gram-positive and present, the MRSA was carefully spread onto 150 mm agar plates to inoculate the plates. 5 mcg and 30 mcg vancomycin loaded disks were placed on each agar plate as antibiotic controls. Six plates were run in this experiment, with three plates containing aliquots (from the eluates collected from the study of Example 1 Aim 1) with peroxide (FIG. 7A), while the other three plates contained aliquots run with collagenase & phosphate buffered saline (FIG. 7B).
Aliquots from days 3, 7, 14, 21, and 28 were run. 10 μL of each aliquot was pipetted onto filter paper and placed onto the agar plates. The agar plates were incubated for 24 hours at 37 degrees Celsius, and the zones of inhibition were measured the following morning.

In the case of `CN[C@H](CC(C)C)C(=O)N[C@H]1C(=O)N[C@@H](CC(N)=O)C(=O)N[C@H]2C(=O)N[C@H]3C(=O)N[C@H](C(=O)N[C@H](C(=O)O)c4cc(O)cc(O)c4-c4cc3ccc4O)[C@H](O)c3ccc(c(Cl)c3)Oc3cc2cc(c3O[C@@H]2O[C@H](CO)[C@@H](O)[C@H](O)[C@H]2O[C@H]2C[C@](C)(N)[C@H](O)[C@H](C)O2)Oc2ccc(cc2Cl)[C@H]1O` [Vanc., vancomycin], the zone of inhibition at 5 µg/disc runs as follows: (read-out: 5 mcg Vanc. zone of inhibition, average, 5 mcg vancomycin control disk, average of plates 1-3 (collagenase & phosphate buffered saline)) 1.33 mm; (read-out: 5 mcg Vanc. zone of inhibition, average, 5 mcg vancomycin control disk, average of plates 4-6 (peroxide)) 1.33 mm. For the same molecule, the zone of inhibition at 30 µg/disc amounted to 4.67 mm (read-out: 30 mcg Vanc. zone of inhibition, average, 30 mcg vancomycin control disk, average of plates 1-3 (collagenase & phosphate buffered saline)) and 4.33 mm (read-out: 30 mcg Vanc. zone of inhibition, average, 30 mcg vancomycin control disk, average of plates 4-6 (peroxide)).

The zone of inhibition is the size of the clear area around the sample on an inoculated plate.
